Assay results reported in ChEMBL document CHEMBL6134780, “Halogenated retinoid derivatives as dual RARα and RXRα modulators for treating acute promyelocytic leukemia cells” (Eur J Med Chem, 2024).
Active and inactive are the calls of the source. The rule behind the calls is not given here.

Experiments:
Format in all cases: functional
NB-4 [1] = test: Induction of apoptosis in human NB4 cells assessed as early apoptotic cells at 1 uM incubated for 24 hrs by Annexin V-FITC/PI staining based flow cytometric analysis (reference value: 1.77 %)
NB-4 [2] = test: Cell cycle arrest in human NB4 cells transfected with pLVX-shRXRalpha plasmid assessed as accumulation of cells at sub-G1 phase at 1 uM incubated for 12 hrs by DAPI staining based flow cytometric analysis (reference value: 10 %)
NB-4 [3] = test: Cell cycle arrest in human NB4 cells transfected with pLVX-shRXRalpha plasmid assessed as accumulation of cells at S phase at 1 uM incubated for 12 hrs by DAPI staining based flow cytometric analysis (reference value: 19 %)
NB-4 [4] = test: Cell cycle arrest in human NB4 cells assessed as accumulation of cells at G0/G1 phase at 1 uM incubated for 12 hrs by DAPI staining based flow cytometric analysis (reference value: 51 %)
NB-4 [5] = test: Cell cycle arrest in human NB4 cells assessed as accumulation of cells at S phase at 0.5 uM incubated for 24 hrs by DAPI staining based flow cytometric analysis (reference value: 26 %)
NB-4 [6] = test: Cell cycle arrest in human NB4 cells assessed as accumulation of cells at G2/M phase at 2 uM incubated for 3 hrs by DAPI staining based flow cytometric analysis (reference value: 21 %)
NB-4 [7] = test: Cell cycle arrest in human NB4 cells transfected with pLVX-shRXRalpha plasmid assessed as accumulation of cells at G2/M phase at 2 uM incubated for 12 hrs by DAPI staining based flow cytometric analysis (reference value: 17 %)
[8] = Cell cycle arrest in human ATRA-resistant NB4-LR2 cells assessed as accumulation of cells at S phase at 2 uM incubated for 6 hrs by DAPI staining based flow cytometric analysis (reference value: 19 %)
[9] = Cell cycle arrest in human ATRA-resistant NB4-LR2 cells assessed as accumulation of cells at sub-G1 phase at 2 uM incubated for 12 hrs by DAPI staining based flow cytometric analysis (reference value: 9 %)
NB-4 [10] = test: Cell cycle arrest in human NB4 cells assessed as accumulation of cells at G0/G1 phase at 1 uM incubated for 24 hrs by DAPI staining based flow cytometric analysis (reference value: 48 %)
[11] = Cell cycle arrest in human ATRA-resistant NB4-LR2 cells assessed as accumulation of cells at sub-G1 phase at 0.5 uM incubated for 24 hrs by DAPI staining based flow cytometric analysis (reference value: 12 %)
NB-4 [12] = test: Cell cycle arrest in human NB4 cells transfected with pLVX-shRXRalpha plasmid assessed as accumulation of cells at G2/M phase at 1 uM incubated for 12 hrs by DAPI staining based flow cytometric analysis (reference value: 17 %)
NB-4 [13] = test: Cell cycle arrest in human NB4 cells assessed as accumulation of cells at sub-G1 phase at 2 uM incubated for 24 hrs by DAPI staining based flow cytometric analysis (reference value: 3 %)
NB-4 [14] = test: Cell cycle arrest in human NB4 cells transfected with pLVX-shRXRalpha plasmid assessed as accumulation of cells at G0/G1 phase at 2 uM incubated for 12 hrs by DAPI staining based flow cytometric analysis (reference value: 53 %)
NB-4 [15] = test: Cell cycle arrest in human NB4 cells transfected with pLVX-shRXRalpha plasmid assessed as accumulation of cells at S phase at 2 uM incubated for 12 hrs by DAPI staining based flow cytometric analysis (reference value: 19 %)
[16] = Cell cycle arrest in human ATRA-resistant NB4-LR2 cells assessed as accumulation of cells at G2/M phase at 2 uM incubated for 6 hrs by DAPI staining based flow cytometric analysis (reference value: 15 %)
[17] = Cell cycle arrest in human ATRA-resistant NB4-LR2 cells assessed as accumulation of cells at G0/G1 phase at 1 uM incubated for 12 hrs by DAPI staining based flow cytometric analysis (reference value: 42 %)
[18] = Cell cycle arrest in human ATRA-resistant NB4-LR2 cells assessed as accumulation of cells at G2/M phase at 0.5 uM incubated for 24 hrs by DAPI staining based flow cytometric analysis (reference value: 25 %)
NB-4 [19] = test: Cell cycle arrest in human NB4 cells transfected with pLVX-shPML-RARalpha plasmid assessed as accumulation of cells at S phase at 2 uM incubated for 12 hrs by DAPI staining based flow cytometric analysis (reference value: 19 %)
NB-4 [20] = test: Cell cycle arrest in human NB4 cells transfected with pLVX-shRNA2-negative control assessed as accumulation of cells at sub-G1 phase at 2 uM incubated for 12 hrs by DAPI staining based flow cytometric analysis (reference value: 4 %)
NB-4 [21] = test: Cell cycle arrest in human NB4 cells assessed as accumulation of cells at sub-G1 phase at 1 uM incubated for 24 hrs by DAPI staining based flow cytometric analysis (reference value: 3 %)
NB-4 [22] = test: Cell cycle arrest in human NB4 cells transfected with pLVX-shPML-RARalpha plasmid assessed as accumulation of cells at G0/G1 phase at 2 uM incubated for 12 hrs by DAPI staining based flow cytometric analysis (reference value: 38 %)
[23] = Cell cycle arrest in human ATRA-resistant NB4-LR2 cells assessed as accumulation of cells at G0/G1 phase at 1 uM incubated for 24 hrs by DAPI staining based flow cytometric analysis (reference value: 42 %)
NB-4 [24] = test: Cell cycle arrest in human NB4 cells assessed as accumulation of cells at sub-G1 phase at 2 uM incubated for 12 hrs by DAPI staining based flow cytometric analysis (reference value: 3 %)
NB-4 [25] = test: Cell cycle arrest in human NB4 cells transfected with pLVX-shRNA2-negative control assessed as accumulation of cells at G0/G1 phase at 1 uM incubated for 12 hrs by DAPI staining based flow cytometric analysis (reference value: 46 %)
[26] = Cell cycle arrest in human ATRA-resistant NB4-LR2 cells assessed as accumulation of cells at S phase at 1 uM incubated for 12 hrs by DAPI staining based flow cytometric analysis (reference value: 12 %)
[27] = Cell cycle arrest in human ATRA-resistant NB4-LR2 cells assessed as accumulation of cells at G0/G1 phase at 2 uM incubated for 12 hrs by DAPI staining based flow cytometric analysis (reference value: 57 %)
NB-4 [28] = test: Cell cycle arrest in human NB4 cells transfected with pLVX-shRNA2-negative control assessed as accumulation of cells at S phase at 2 uM incubated for 12 hrs by DAPI staining based flow cytometric analysis (reference value: 26 %)
NB-4 [29] = test: Cell cycle arrest in human NB4 cells assessed as accumulation of cells at S phase at 1 uM incubated for 24 hrs by DAPI staining based flow cytometric analysis (reference value: 26 %)
NB-4 [30] = test: Cell cycle arrest in human NB4 cells assessed as accumulation of cells at G2/M phase at higher concentration by DAPI staining based flow cytometric analysis
ATRA-resistant NB4-LR2 = test: Cell cycle arrest in human ATRA-resistant NB4-LR2 cells assessed as accumulation of cells at G2/M phase at higher concentration by DAPI staining based flow cytometric analysis

Cc1cc2c(cc1C(=O)/C(Br)=C/c1ccc(C(=O)O)cc1)C(C)(C)CCC2(C)C
Activity (NB-4 [1]): 19.18% | Activity (NB-4 [2]): 11% | Activity (NB-4 [3]): 7% | Activity (NB-4 [4]): 20% | Activity (NB-4 [5]): 10% | Activity (NB-4 [6]): 28% | Activity (NB-4 [7]): 26% | Activity [8]: 7% | Activity [9]: 32% | Activity (NB-4 [10]): 38% | Activity [11]: 18% | Activity (NB-4 [12]): 45% | Activity (NB-4 [13]): 9% | Activity (NB-4 [14]): 40% | Activity (NB-4 [15]): 22% | Activity [16]: 26% | Activity [17]: 10% | Activity [18]: 33% | Activity (NB-4 [19]): 11% | Activity (NB-4 [20]): 7% | Activity (NB-4 [21]): 8% | Activity (NB-4 [22]): 31% | Activity [23]: 32% | Activity (NB-4 [24]): 4% | Activity (NB-4 [25]): 30% | Activity [26]: 16% | Activity [27]: 36% | Activity (NB-4 [28]): 18% | Activity (NB-4 [29]): 9%

Cc1cc2c(cc1C(=O)/C(Br)=C\c1ccc(C(=O)O)cc1)C(C)(C)CCC2(C)C
Activity (NB-4 [30]): Active | Activity (ATRA-resistant NB4-LR2): Active
